In patent US7569573B2, “Diketo acids with nucleobase scaffolds: anti-HIV replication inhibitors targeted at HIV integrase” (The University of Georgia Research Foundation, Inc., priority 2005, dated 2009):
Like-named read-outs stand apart in the source and are kept apart here.

Tests used:
[1] = literature values, same sources as the IC50; cited from earlier work
HIV = assay: In vitro anti-HIV activity, PBMC cell-based assay, side by side with AZT; conditions: Human immunodeficiency virus 1
[2] = Cytotoxicity (CC50) in the PBMC cell-based anti-HIV assay

IC50 (HIV) [nM]	Structure (SMILES)	CC50 [1] [µM]	CC50 [2] [µM]
–	O=C(O)C(=O)CC(=O)c1cc(OCc2ccccc2)cc(OCc2ccccc2)c1 [Example L-708906]	88.3	–
–	O=C(/C=C(\O)c1nc[nH]n1)c1ccc(Cc2ccc(F)cc2)o1 [Example S-1360]	110	–
20	O=C(O)/C(O)=C/C(=O)c1cn(Cc2ccccc2)c(=O)n(Cc2ccccc2)c1=O	–	> 200
